Holding throughout (type): cell-based
Experiment [1] concerns the target EGFR(D770_N771insSVD) expressing Ba/F3 stable cell line (Homo sapiens, UniProt P00533, DUP768-770, cells depend on it). In words: Cellular proliferation (Alamar Blue) assay, EGFR D770_N771insSVD Ba/F3. To be noted: 72 hr, read-out: D770 IC50. The gist of the method:
(§1)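 Seventy-two-hour compound exposure (3-fold series, final 10–0.0005 μM) of mutant EGFR/HER2 Ba/F3 cells plated at 15,000/well in RPMI with 10% FBS. Alamar Blue added for 3 h at 37 °C as proliferation read-out.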
(In general: The colour change of resazurin is a common sign of viable cells or microbes.)

The target in experiment [2] is EGFR (A767_dupASV) expressing Ba/F3 stable cell line (Homo sapiens, UniProt P00533, DUP767-769, cells depend on it). In words: Cellular proliferation (Alamar Blue) assay, EGFR A767_dupASV Ba/F3. To be noted: 72 hr, read-out: A767 IC50. The gist of the method:
as §1

For experiment [3], the target named is HER2 (A775_G776insYVMA) expressing Ba/F3 stable cell line (Homo sapiens, UniProt P04626, DUP772-775, cells depend on it). The experiment can be described thus: Cellular proliferation (Alamar Blue) assay, HER2 A775_G776insYVMA Ba/F3. To be noted: 72 hr, read-out: YVMA IC50. The method, then:
• 1. EGFR(D770_N771insSVD) expressing Ba/F3 stable cell line • 2. EGFR (A767_dupASV) expressing Ba/F3 stable cell line • 3. A431 cells • 4. EGFR (H773insNPH) expressing Ba/F3 stable cell line • 5. HER2 (A775_G776insYVMA) expressing Ba/F3 stable cell line Assay Procedure: • 1. Seed cells at 5000 for A431 and 15,000 cells for Ba/F3 in 100 μL/well in complete media (for A431: DMEM with […] and for Ba/F3 cells: RPMI with 10% FBS) in 96-well tissue culture plate. Leave outer wells without cells for background measurements. Incubate at 37 degree Celsius in […] humidified incubator for 16-18 hours. • 2. Add 0.025 ml of 5× concentration compound dilution or DMSO control. Final compound concentration range is 10-0.0005 μM prepared in 3-fold serial dilutions. Incubate for 72 hr at 37 degree Celsius in […] humidified incubator. • 3. Add 0.0125 ml Alamar Blue™ reagent to each well with multi-channel pipette and tap gently on each side of the plate to mix. Incubate for 3 hours at 37 degree Celsius in 5% CO2 humidified incubator. • 4. […] Data analysis was performed using XLfit 5.5.0.5.

The next experiment has as its system A431 cells. In words: Cellular proliferation (Alamar Blue) assay, A431.
The mark [4] stands for this setting: Homo sapiens, A-431; A431 cells, 72 hr, Alamar Blue; read-out: A431 IC50.
Where [5] appears, read: Homo sapiens, A-431; A431 cells, Alamar Blue, 72 hr; read-out: A431 IC50.

Counter-ions that a name gives are not always drawn. Like-named read-outs stand apart in the source and are kept apart here. Bounds are passed on as bounds.

Drawing on patent US12686673B2 (Blueprint Medicines Corporation, priority 2020, dated 2026), this text covers GI50 and IC50 for 23 compounds.

EGFR(D770_N771insSVD) expressing Ba/F3 stable cell line, sequence (P00533 with tags, fused parts or gaps DUP768-770): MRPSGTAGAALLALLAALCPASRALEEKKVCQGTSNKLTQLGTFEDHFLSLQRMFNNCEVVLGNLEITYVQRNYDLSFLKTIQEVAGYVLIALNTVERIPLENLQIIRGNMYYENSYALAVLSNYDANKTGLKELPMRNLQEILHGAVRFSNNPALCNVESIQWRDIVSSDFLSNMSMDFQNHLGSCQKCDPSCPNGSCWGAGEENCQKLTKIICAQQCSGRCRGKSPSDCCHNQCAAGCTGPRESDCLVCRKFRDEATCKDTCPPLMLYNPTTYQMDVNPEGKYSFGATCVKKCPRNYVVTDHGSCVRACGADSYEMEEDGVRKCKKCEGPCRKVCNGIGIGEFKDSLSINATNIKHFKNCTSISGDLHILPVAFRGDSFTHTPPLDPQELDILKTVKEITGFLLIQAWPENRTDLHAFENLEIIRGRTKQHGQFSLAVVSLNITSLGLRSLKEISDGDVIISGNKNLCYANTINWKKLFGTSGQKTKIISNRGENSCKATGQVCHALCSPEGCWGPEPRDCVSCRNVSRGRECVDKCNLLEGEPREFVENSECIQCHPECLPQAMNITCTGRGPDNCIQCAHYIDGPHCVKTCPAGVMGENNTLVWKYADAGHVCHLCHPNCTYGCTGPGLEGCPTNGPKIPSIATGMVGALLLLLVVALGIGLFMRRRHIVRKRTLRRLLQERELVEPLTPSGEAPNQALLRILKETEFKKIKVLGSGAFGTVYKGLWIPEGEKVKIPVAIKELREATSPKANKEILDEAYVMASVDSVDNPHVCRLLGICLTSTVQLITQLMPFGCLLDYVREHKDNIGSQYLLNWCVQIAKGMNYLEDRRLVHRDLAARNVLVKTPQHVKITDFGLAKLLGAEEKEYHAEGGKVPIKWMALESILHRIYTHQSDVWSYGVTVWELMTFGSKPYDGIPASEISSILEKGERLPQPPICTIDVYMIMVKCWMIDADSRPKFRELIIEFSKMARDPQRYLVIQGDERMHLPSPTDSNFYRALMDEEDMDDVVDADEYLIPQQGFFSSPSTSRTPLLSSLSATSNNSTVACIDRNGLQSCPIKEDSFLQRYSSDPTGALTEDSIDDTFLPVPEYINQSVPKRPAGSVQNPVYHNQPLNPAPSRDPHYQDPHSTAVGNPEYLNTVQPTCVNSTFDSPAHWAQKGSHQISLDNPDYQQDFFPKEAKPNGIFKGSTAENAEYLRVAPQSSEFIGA
EGFR (A767_dupASV) expressing Ba/F3 stable cell line, sequence (P00533 with tags, fused parts or gaps DUP767-769): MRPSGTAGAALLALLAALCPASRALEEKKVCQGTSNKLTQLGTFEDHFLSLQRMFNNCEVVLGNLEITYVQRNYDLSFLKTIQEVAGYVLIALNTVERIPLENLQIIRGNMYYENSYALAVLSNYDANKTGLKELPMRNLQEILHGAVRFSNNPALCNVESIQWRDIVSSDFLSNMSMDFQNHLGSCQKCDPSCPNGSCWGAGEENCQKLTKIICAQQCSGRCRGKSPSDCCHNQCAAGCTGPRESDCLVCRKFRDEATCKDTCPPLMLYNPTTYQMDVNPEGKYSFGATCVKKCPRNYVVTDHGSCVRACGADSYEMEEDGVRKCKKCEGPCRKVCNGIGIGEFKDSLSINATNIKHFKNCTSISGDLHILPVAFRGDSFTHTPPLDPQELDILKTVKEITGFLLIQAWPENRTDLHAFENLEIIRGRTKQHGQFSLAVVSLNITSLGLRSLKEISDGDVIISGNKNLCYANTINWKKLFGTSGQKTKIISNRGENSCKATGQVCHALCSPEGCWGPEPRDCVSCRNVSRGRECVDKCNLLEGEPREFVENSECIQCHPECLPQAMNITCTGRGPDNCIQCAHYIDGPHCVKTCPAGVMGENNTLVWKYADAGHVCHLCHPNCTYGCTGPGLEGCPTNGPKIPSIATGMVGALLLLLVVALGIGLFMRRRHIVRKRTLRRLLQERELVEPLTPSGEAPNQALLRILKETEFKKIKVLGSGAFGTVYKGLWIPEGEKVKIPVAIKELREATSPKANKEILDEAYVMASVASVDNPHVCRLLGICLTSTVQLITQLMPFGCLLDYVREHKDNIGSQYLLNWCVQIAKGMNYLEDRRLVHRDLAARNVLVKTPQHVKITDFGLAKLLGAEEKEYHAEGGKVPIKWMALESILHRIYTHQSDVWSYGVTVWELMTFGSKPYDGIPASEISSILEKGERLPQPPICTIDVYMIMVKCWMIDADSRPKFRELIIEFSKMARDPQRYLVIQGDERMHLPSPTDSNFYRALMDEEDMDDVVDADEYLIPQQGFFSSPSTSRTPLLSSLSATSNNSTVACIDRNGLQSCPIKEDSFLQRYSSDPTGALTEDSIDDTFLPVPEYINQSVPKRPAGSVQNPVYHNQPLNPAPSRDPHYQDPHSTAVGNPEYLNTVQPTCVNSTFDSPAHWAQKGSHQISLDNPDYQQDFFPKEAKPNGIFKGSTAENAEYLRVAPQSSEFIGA
HER2 (A775_G776insYVMA) expressing Ba/F3 stable cell line, sequence (P04626 with tags, fused parts or gaps DUP772-775): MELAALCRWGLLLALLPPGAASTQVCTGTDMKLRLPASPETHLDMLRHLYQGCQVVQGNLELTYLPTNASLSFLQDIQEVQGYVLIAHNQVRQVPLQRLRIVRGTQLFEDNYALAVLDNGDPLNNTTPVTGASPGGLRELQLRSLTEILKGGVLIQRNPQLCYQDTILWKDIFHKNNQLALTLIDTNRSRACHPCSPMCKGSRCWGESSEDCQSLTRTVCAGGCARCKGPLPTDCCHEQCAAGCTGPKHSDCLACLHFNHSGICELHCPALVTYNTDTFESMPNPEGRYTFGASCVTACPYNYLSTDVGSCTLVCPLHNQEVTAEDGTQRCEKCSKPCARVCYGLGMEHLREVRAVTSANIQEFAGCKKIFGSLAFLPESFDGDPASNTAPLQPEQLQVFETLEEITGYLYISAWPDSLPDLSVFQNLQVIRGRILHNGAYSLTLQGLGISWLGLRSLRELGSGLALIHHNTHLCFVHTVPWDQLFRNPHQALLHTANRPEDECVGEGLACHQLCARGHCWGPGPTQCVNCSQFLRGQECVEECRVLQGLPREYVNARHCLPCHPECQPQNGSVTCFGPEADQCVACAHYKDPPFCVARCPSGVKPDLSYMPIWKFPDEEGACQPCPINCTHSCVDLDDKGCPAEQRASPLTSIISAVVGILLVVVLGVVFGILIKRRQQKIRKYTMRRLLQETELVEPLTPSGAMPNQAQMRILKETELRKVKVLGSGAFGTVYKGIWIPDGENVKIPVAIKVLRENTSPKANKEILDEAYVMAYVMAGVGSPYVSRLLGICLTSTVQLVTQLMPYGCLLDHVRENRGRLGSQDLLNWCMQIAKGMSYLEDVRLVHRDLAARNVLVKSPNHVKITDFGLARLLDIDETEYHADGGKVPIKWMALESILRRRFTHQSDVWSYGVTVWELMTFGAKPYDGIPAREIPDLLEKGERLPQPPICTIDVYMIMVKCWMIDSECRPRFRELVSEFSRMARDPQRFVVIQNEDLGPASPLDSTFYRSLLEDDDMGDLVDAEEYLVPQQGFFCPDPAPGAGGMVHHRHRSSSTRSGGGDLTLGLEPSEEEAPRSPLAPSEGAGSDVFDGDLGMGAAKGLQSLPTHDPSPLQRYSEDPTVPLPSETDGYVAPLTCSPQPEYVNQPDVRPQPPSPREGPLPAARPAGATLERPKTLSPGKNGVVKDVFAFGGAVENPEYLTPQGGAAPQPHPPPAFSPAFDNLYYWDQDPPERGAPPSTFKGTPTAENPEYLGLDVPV

`C=CC(=O)Nc1cc(F)cc(Nc2nc(Nc3cnn(C)c3)ncc2-c2ccc(C(F)(F)F)cc2)c1` [Compound 239, N-(3-fluoro-5-((2-((1-methyl-1H-pyrazol-4-yl)amino)-5-(4-(trifluoromethyl)phenyl)pyrimidin-4-yl)amino)phenyl)acrylamide]: the GI50 in experiment [1] is 0.036 µM; in experiment [2] it was 0.091 µM; in experiment [3] it was 0.251 µM. For the same compound, the IC50 with A431 cells (setting [4]) was 0.229 µM.
Take `C=C(C)C(=O)Nc1ccc(F)c(Nc2nc(Nc3cnn(C)c3)ncc2Cl)c1` [Compound 12, N-(3-((5-chloro-2-((1-methyl-1H-pyrazol-4-yl)amino)pyrimidin-4-yl)amino)-4-fluorophenyl)methacrylamide]: the figures for the GI50 in experiment [1], in experiment [2] and in experiment [3] were above 10 µM, above 10 µM and 7.03 µM, respectively. The concentration for half-maximal inhibition (IC50) with A431 cells (setting [5]) is above 10 µM.
As for `C=CC(=O)Nc1ccc(F)c(Nc2nc(Nc3cnn(C)c3)ncc2Br)c1` [Compound 256, N-(3-((5-bromo-2-((1-methyl-1H-pyrazol-4-yl)amino)pyrimidin-4-yl)amino)-4-fluorophenyl)acrylamide], the GI50 in experiment [1] worked out at 0.923 µM; in experiment [2] it was 0.411 µM; in experiment [3], 0.755 µM. Further, the 50% inhibitory concentration (IC50) in the experiment on A431 cells (setting [4]) was 1.02 µM.
`C=CC(=O)Nc1ccc(F)c(Nc2nc(Nc3cn(C)nc3Cl)ncc2-c2ccccc2F)c1` [Compound 264, N-(3-((2-((3-chloro-1-methyl-1H-pyrazol-4-yl)amino)-5-(2-fluorophenyl)pyrimidin-4-yl)amino)-4-fluorophenyl)acrylamide]: the GI50 in experiment [3] was determined as 0.465 µM. Moreover, the 50% inhibitory concentration (IC50) in the experiment on A431 cells (setting [4]) was 0.145 µM.
Turning to `C=CC(=O)Nc1ccc(F)c(Nc2nc(Nc3cnn(CC(C)(C)O)c3)ncc2Br)c1` [Compound 273, N-(3-((5-bromo-2-((1-(2-hydroxy-2-methylpropyl)-1H-pyrazol-4-yl)amino)pyrimidin-4-yl)amino)-4-fluorophenyl)acrylamide], the GI50 in experiment [3] is 2.63 µM. In addition, in the experiment with A431 cells (setting [4]), the IC50 worked out at 3.93 µM.
Take `C=CC(=O)Nc1cccc(Nc2nc(Nc3cnn(C)c3)ncc2F)c1` [Compound 280, N-[3-({5-fluoro-2-[(1-methyl-1H-pyrazol-4-yl)amino]pyrimidin-4-yl}amino)phenyl]prop-2-enamide]: the GI50 in experiment [3] was determined as 5.16 µM. In the experiment on A431 cells (setting [4]), the IC50 is 0.52 µM.
As for `C=CC(=O)Nc1cccc(Nc2nc(Nc3cnn(C)c3)ncc2-c2ccc(Br)cc2)c1` [Compound 274, N-(3-((5-(4-bromophenyl)-2-((1-methyl-1H-pyrazol-4-yl)amino)pyrimidin-4-yl)amino)phenyl)acrylamide], the GI50 in experiment [1] was determined as 0.029 µM; in experiment [3], 0.12 µM. For the same compound, the 50% inhibitory concentration (IC50) in the experiment with A431 cells (setting [4]) came to 0.022 µM.
For the compound `C=CC(=O)Nc1cccc(Nc2ncc(Cl)c(Nc3cnn(C)c3)n2)c1` [Compound 275, N-(3-((5-chloro-4-((1-methyl-1H-pyrazol-4-yl)amino)pyrimidin-2-yl)amino)phenyl)acrylamide], the GI50 in experiment [3] is 3.05 µM. Moreover, the IC50 in the experiment with A431 cells (setting [4]) stood at 1.43 µM.
For the compound `C=CC(=O)Nc1ccc(F)c(Nc2nc(Nc3cnn(C)c3)ncc2N2CCCCC2)c1` [Compound 269, N-(4-fluoro-3-((2-((1-methyl-1H-pyrazol-4-yl)amino)-5-(piperidin-1-yl)pyrimidin-4-yl)amino)phenyl)acrylamide], the GI50 in experiment [3] was above 10 µM. The IC50 with A431 cells (setting [4]) came to 5.61 µM.
For `C=CC(=O)Nc1cc(Br)cc(Nc2nc(Nc3cnn(C)c3)ncc2Cl)c1` [Compound 283, N-[3-bromo-5-({5-chloro-2-[(1-methyl-1H-pyrazol-4-yl)amino]pyrimidin-4-yl}amino)phenyl]prop-2-enamide], the GI50 in experiment [3] came out at 1.48 µM. The concentration for half-maximal inhibition (IC50) in the experiment with A431 cells (setting [4]) turned out to be 0.617 µM.
In the case of `C=CC(=O)Nc1ccc(F)c(Nc2nc(Nc3ccc(CN(C)C)cc3)ncc2Cl)c1` [Compound 287, N-(3-((5-chloro-2-((4-((dimethylamino)methyl)phenyl)amino)pyrimidin-4-yl)amino)-4-fluorophenyl)acrylamide], the GI50 in experiment [3] is 0.764 µM. The IC50 in the experiment on A431 cells (setting [4]) amounted to 0.473 µM.
Taken in the same sequence, the figures for `C=CC(=O)Nc1ccc(F)c(Nc2nc(Nc3cnn(C(C)(C)C#N)c3)ncc2C2=CCOC2)c1` [Compound 272, N-(3-((2-((1-(2-cyanopropan-2-yl)-1H-pyrazol-4-yl)amino)-5-(2,5-dihydrofuran-3-yl)pyrimidin-4-yl)amino)-4-fluorophenyl)acrylamide] were 0.602 µM and 1.01 µM.
Turning to `C=CC(=O)Nc1ccc(F)c(Nc2nc(Nc3cnn(C)c3)ncc2-c2ccc(OCc3cccc(F)c3)cc2)c1` [Compound 276, N-(4-fluoro-3-((5-(4-((3-fluorobenzyl)oxy)phenyl)-2-((1-methyl-1H-pyrazol-4-yl)amino)pyrimidin-4-yl)amino)phenyl)acrylamide], in experiment [3], the GI50 came out at 0.861 µM. The IC50 in the experiment on A431 cells (setting [4]) came to 0.278 µM.
For the compound `C=CC(=O)Nc1cc(Br)cc(Nc2nc(Nc3cnn(C)c3)ncc2-c2ccc(C(F)(F)F)cc2)c1` [Compound 290, N-[3-bromo-5-({2-[(1-methyl-1H-pyrazol-4-yl)amino]-5-[4-(trifluoromethyl)phenyl]pyrimidin-4-yl}amino)phenyl]prop-2-enamide], the GI50 in experiment [3] was 2.92 µM. In addition, the half-inhibitory concentration (IC50) with A431 cells (setting [4]) was above 9.79 µM.
In the case of `C=CC(=O)Nc1ccc(F)c(Nc2nc(Nc3cnn(CCN(C)C)c3)ncc2Cl)c1` [Compound 284, N-(3-((5-chloro-2-((1-(2-(dimethylamino)ethyl)-1H-pyrazol-4-yl)amino)pyrimidin-4-yl)amino)-4-fluorophenyl)acrylamide], the GI50 in experiment [3] came to 0.874 µM. The IC50 in the experiment with A431 cells (setting [4]) was 0.536 µM.
Taken in the same sequence, the figures for `C=CC(=O)Nc1ccc(F)c(Nc2nc(Nc3ccc(N(C)CCN(C)C)cc3)ncc2Cl)c1` [Compound 288, N-(3-((5-chloro-2-((4-((2-(dimethylamino)ethyl)(methyl)amino)phenyl)amino)pyrimidin-4-yl)amino)-4-fluorophenyl)acrylamide] were 3.04 µM and 4.91 µM.
Taken in the same sequence, the figures for `C=CC(=O)Nc1ccc(F)c(Nc2nc(Nc3cnn(C)c3)ncc2C2CCOC2)c1` (stereo not drawn) [Compound 266, N-{4-fluoro-3-([2-[(1-methyl-1H-pyrazol-4-yl)amino]-5-(oxolan-3-yl)pyrimidin-4-yl}amino)phenyl] prop-2-enamide] were 1.38 µM and 0.768 µM.
Taken in the same sequence, the figures for `C=CC(=O)Nc1ccc(F)c(Nc2nc(Nc3cnn(C(C)(C)C#N)c3)ncc2Br)c1` [Compound 271, N-(3-((5-bromo-2-((1-(2-cyanopropan-2-yl)-1H-pyrazol-4-yl)amino)pyrimidin-4-yl)amino)-4-fluorophenyl)acrylamide] were 2.16 µM and 2.96 µM.
Regarding `C=CC(=O)Nc1ccc(F)c(Nc2nc(Nc3cnn(C)c3)ncc2-c2ccn3ncnc3c2)c1` [Compound 278, N-(3-((5-([1,2,4]triazolo[1,5-a]pyridin-7-yl)-2-((1-methyl-1H-pyrazol-4-yl)amino)pyrimidin-4-yl)amino)-4-fluorophenyl)acrylamide], the GI50 in experiment [3] came out at 0.444 µM. Further, the IC50 with A431 cells (setting [4]) was 0.073 µM.
On to `C=CC(=O)Nc1cccc(Nc2nc(Nc3cnn(C)c3)ncc2-c2ccc(C(F)(F)F)cc2)c1F` [Compound 148, N-(2-fluoro-3-((2-((1-methyl-1H-pyrazol-4-yl)amino)-5-(4-(trifluoromethyl)phenyl)pyrimidin-4-yl)amino)phenyl)acrylamide trifluoroacetate], for which the GI50 in experiment [2] was 0.056 µM; in experiment [3], 0.349 µM. Also, the IC50 with A431 cells (setting [5]) is 0.083 µM.
For the compound `C=CC(=O)Nc1ccc(F)c(Nc2nc(Nc3cnn(C)c3)ncc2-c2ccc3c(cnn3C)c2)c1` [Compound 270, N-(4-fluoro-3-((5-(1-methyl-1H-indazol-5-yl)-2-((1-methyl-1H-pyrazol-4-yl)amino)pyrimidin-4-yl)amino)phenyl)acrylamide], the GI50 in experiment [3] is 0.985 µM. The half-inhibitory concentration (IC50) in the experiment on A431 cells (setting [4]) amounted to 0.19 µM.
Taken in the same sequence, the figures for `C=CC(=O)Nc1ccc(F)c(Nc2nc(Nc3cnn(C)c3)ncc2-c2cccc3ccncc23)c1` [Compound 268, N-(4-fluoro-3-((5-(isoquinolin-8-yl)-2-((1-methyl-1H-pyrazol-4-yl)amino)pyrimidin-4-yl)amino)phenyl)acrylamide] were above 10 µM and 3.44 µM.
`C=CC(=O)Nc1ccc(F)c(Nc2nc(Nc3cnn(C)c3)ncc2-c2ccc3[nH]ncc3c2)c1` [Compound 277, N-(3-((5-(1H-indazol-5-yl)-2-((1-methyl-1H-pyrazol-4-yl)amino)pyrimidin-4-yl)amino)-4-fluorophenyl)acrylamide]: in experiment [3], the GI50 turned out to be 0.645 µM. The IC50 in the experiment with A431 cells (setting [4]) is 0.293 µM.

For orientation: IC50 means the concentration needed to halve the response being measured.
